Data on 25 molecules can be found in US8987268B2, “Pyrrolopyridazine JAK3 inhibitors and their use for the treatment of inflammatory and autoimmune diseases” (Bristol-Myers Squibb Company, priority 2011, dated 2015).

Each structure is given as a SMILES string. pIC50: −log10 of the molar value. Counter-ions that a name gives are not always drawn. Like-named read-outs stand apart in the source and are kept apart here.

One assay has as its target GST-JAK1 enzyme (Homo sapiens (Human), UniProt P23458). Put plainly: JAK1 Kinase Assay Protocol. It counts as biochemical. Particulars: read-out: LLE_JAK1 (IC50). As for the experimental part: JAK1 Kinase Assay Protocol
(§1) The assay reactions were performed in U-bottom 384-well plates. […] The reaction was initiated by the combination of GST-JAK1 enzyme with substrates and test compounds. The reactions were incubated at room temperature for 3 hours and terminated by adding 60 μl of 35 mM EDTA to each sample. Each reaction mixture was analyzed on the Caliper LabChip 3000 (Caliper, Hopkinton, Mass.) by electrophoretic separation of the fluorescent substrate and phosphorylated product. […] Compounds were dissolved at 10 mM in dimethylsulfoxide (DMSO) and evaluated at eleven concentrations. IC50 values were derived by non-linear regression analysis.

Another assay addresses GST-JAK3 enzyme (Homo sapiens (Human), UniProt P52333). The experiment in a line: JAK3 Kinase Assay Protocol (Caliper). Particulars: JAK3 kinase inhibition; read-out: LLE_JAK3_FB (IC50). The format is biochemical. The procedure: JAK3 Kinase Assay Protocol (Caliper)
as §1, with “GST-JAK3” for “GST-JAK1”

GST-JAK1 enzyme, sequence (P23458 whole entry): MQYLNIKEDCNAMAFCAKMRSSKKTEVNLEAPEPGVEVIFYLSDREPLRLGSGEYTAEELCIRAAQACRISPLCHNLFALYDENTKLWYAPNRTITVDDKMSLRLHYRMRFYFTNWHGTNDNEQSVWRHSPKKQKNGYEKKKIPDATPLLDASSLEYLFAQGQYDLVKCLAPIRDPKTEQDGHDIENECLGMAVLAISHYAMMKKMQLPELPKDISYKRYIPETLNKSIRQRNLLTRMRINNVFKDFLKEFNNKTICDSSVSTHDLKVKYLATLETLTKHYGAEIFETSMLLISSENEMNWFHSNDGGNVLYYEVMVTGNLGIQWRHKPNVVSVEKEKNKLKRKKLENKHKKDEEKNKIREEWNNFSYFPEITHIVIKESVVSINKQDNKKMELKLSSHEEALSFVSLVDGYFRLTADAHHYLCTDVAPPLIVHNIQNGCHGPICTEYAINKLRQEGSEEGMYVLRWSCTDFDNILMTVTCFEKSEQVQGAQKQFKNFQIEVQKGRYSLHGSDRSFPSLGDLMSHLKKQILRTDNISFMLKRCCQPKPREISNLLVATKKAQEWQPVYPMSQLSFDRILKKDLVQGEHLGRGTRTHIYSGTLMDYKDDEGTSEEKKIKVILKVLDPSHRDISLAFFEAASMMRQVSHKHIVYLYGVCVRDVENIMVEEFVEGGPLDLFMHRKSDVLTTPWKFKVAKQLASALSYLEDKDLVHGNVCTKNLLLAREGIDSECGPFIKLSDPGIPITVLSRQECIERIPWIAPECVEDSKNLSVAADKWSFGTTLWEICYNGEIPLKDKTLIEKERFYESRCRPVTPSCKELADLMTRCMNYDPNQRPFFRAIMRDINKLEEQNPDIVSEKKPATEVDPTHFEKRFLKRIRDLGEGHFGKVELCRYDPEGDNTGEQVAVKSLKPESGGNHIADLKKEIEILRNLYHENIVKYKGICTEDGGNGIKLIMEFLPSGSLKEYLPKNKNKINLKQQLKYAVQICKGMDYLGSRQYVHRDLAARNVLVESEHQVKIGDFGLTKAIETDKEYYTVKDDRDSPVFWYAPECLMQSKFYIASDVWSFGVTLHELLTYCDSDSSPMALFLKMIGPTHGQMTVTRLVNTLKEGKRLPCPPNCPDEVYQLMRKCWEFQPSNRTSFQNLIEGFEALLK
GST-JAK3 enzyme, sequence (P52333 whole entry): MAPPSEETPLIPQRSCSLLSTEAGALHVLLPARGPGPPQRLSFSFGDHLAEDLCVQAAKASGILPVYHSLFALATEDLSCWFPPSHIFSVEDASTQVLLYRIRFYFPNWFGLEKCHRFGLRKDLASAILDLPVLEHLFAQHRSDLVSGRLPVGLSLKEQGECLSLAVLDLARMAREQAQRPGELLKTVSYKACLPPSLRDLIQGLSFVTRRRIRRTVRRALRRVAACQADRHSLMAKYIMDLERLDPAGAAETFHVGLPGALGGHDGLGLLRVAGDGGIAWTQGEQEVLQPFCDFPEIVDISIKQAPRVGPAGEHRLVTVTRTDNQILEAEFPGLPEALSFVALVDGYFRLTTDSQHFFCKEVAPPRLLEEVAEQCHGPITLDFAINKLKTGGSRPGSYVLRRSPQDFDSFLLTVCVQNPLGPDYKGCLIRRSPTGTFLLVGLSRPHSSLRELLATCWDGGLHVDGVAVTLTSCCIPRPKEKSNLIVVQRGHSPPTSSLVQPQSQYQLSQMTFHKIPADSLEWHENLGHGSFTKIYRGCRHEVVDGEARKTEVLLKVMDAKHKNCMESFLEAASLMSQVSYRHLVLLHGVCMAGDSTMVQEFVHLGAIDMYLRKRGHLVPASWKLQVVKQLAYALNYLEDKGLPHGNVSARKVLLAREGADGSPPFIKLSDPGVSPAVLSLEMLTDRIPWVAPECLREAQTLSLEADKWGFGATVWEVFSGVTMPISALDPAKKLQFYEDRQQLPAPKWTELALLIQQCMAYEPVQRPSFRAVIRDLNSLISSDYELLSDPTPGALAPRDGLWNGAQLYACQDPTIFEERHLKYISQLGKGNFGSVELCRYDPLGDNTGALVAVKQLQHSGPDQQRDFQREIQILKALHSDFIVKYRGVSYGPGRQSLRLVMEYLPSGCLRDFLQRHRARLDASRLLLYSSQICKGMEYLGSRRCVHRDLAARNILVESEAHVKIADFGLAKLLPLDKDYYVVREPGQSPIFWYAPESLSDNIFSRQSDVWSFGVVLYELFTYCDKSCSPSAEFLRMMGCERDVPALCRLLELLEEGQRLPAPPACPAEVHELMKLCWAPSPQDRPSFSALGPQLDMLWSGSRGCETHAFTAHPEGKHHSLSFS

What is called pIC50 is the IC50 on a negative log10 scale, so that one unit is a factor of ten. With `CS(=O)(=O)N1C[C@H](CF)[C@H](Nc2c(C(N)=O)cnn3cc(-c4ccc(C(F)(F)F)nc4)cc23)C1` (racemic) [Example 275, (+/−)-Cis-4-((-4-(fluoromethyl)-1-(methylsulfonyl)pyrrolidin-3-yl)amino)-6-(6-(trifluoromethyl)pyridin-3-yl)pyrrolo[1,2-b]pyridazine-3-carboxamide], at GST-JAK1 enzyme (JAK1 kinase inhibition), the pIC50 is 8.21.
On to `NC(=O)c1cnn2cc(-c3ccc(F)cc3)cc2c1NC1CCOCC1` [Example 28, 6-(4-fluorophenyl)-4-(tetrahydro-2H-pyran-4-ylamino)pyrrolo[1,2-b]pyridazine-3-carboxamide], for which the values for the negative-log IC50 (pIC50) at GST-JAK3 enzyme and on GST-JAK1 enzyme (JAK1 kinase inhibition) were 8.12 and 7.67, respectively.
As for `NC(=O)c1cnn2cc(-c3cncc(F)c3)cc2c1NC1CCOCC1` [Example 29, 6-(5-fluoro-3-pyridinyl)-4-(tetrahydro-2H-pyran-4-ylamino)pyrrolo[1,2-b]pyridazine-3-carboxamide], the pIC50 at GST-JAK3 enzyme is 7.15; on GST-JAK1 enzyme (JAK1 kinase inhibition), 6.92.
Taken in the same sequence, the figures for `Cn1nccc1-c1cc2c(NC3CCOCC3)c(C(N)=O)cnn2c1` [Example 30, 6-(1-methyl-1H-pyrazol-5-yl)-4-(tetrahydro-2H-pyran-4-ylamino)pyrrolo[1,2-b]pyridazine-3-carboxamide] were 6.96 and 6.72.
Taken in the same sequence, the figures for `NC(=O)c1cnn2cc(-c3cccnc3)cc2c1NC1CCOCC1` [Example 31, 6-(3-pyridinyl)-4-(tetrahydro-2H-pyran-4-ylamino)pyrrolo[1,2-b]pyridazine-3-carboxamide] were 7.15 and 6.92.
On to `NC(=O)c1cnn2cc(-c3cncnc3)cc2c1NC1CCOCC1` [Example 32, 6-(5-pyrimidinyl)-4-(tetrahydro-2H-pyran-4-ylamino)pyrrolo[1,2-b]pyridazine-3-carboxamide], for which the values for the pIC50 on GST-JAK3 enzyme and on GST-JAK1 enzyme (JAK1 kinase inhibition) were 6.83 and 6.09, respectively.
Regarding `N#Cc1ccccc1-c1cc2c(NC3CCOCC3)c(C(N)=O)cnn2c1` [Example 33, 6-(2-cyanophenyl)-4-(tetrahydro-2H-pyran-4-ylamino)pyrrolo[1,2-b]pyridazine-3-carboxamide], the results for the pIC50 on GST-JAK3 enzyme and on GST-JAK1 enzyme (JAK1 kinase inhibition) were 7.40 and 6.96, respectively.
As to `NC(=O)c1cnn2cc(-c3ccccc3F)cc2c1NC1CCOCC1` [Example 34, 6-(2-fluorophenyl)-4-(tetrahydro-2H-pyran-4-ylamino)pyrrolo[1,2-b]pyridazine-3-carboxamide], the results for the pIC50 at GST-JAK3 enzyme and on GST-JAK1 enzyme (JAK1 kinase inhibition) were 7.40 and 7.10, respectively.
For `NC(=O)c1cnn2cc(-c3cnc4ccccc4c3)cc2c1NC1CCOCC1` [Example 35, 6-(3-quinolinyl)-4-(tetrahydro-2H-pyran-4-ylamino)pyrrolo[1,2-b]pyridazine-3-carboxamide], the pIC50 on GST-JAK3 enzyme and at GST-JAK1 enzyme (JAK1 kinase inhibition) was 7.40 throughout.
As to `CC1(F)COCC1Nc1c(C(N)=O)cnn2cc(N3CCCC3=O)cc12` (centres unmarked) [Example 40, 4-(4-fluoro-4-methyltetrahydrofuran-3-ylamino)-6-(2-oxopyrrolidin-1-yl)pyrrolo[1,2-b]pyridazine-3-carboxamide], the pIC50 at GST-JAK3 enzyme is 7.82; at GST-JAK1 enzyme (JAK1 kinase inhibition), 7.39.
As to `CS(=O)(=O)N1CCC[C@H](Nc2c(C(N)=O)cnn3cc(-c4ccccc4)cc23)C1` [Example 46, 4-(((3S)-1-(methylsulfonyl)-3-piperidinyl)amino)-6-phenylpyrrolo[1,2-b]pyridazine-3-carboxamide], the pIC50 at GST-JAK3 enzyme is 7.68; at GST-JAK1 enzyme (JAK1 kinase inhibition), 7.24.
With `NC(=O)c1cnn2cc(-c3ccccc3)cc2c1N[C@@H]1CCCNC1` [Example 48, (R)-6-phenyl-4-(piperidin-3-ylamino)pyrrolo[1,2-b]pyridazine-3-carboxamide, HCl], the figures for the pIC50 at GST-JAK3 enzyme and on GST-JAK1 enzyme (JAK1 kinase inhibition) were 7.24 and 7.27, respectively.
Taken in the same sequence, the figures for `CCOC(=O)N1CCC[C@@H](Nc2c(C(N)=O)cnn3cc(-c4ccccc4)cc23)C1` [Example 51, ethyl (3R)-3-((3-carbamoyl-6-phenylpyrrolo[1,2-b]pyridazin-4-yl)amino)-1-piperidinecarboxylate] were 6.55 and 6.04.
Taken in the same sequence, the figures for `COc1ccc(-c2cc3c(N[C@@H]4CCN(C(=O)C(N)=O)CC4(C)C)c(C(N)=O)cnn3c2)cn1` [Example 55, (R)-4-(1-(2-amino-2-oxoacetyl)-3,3-dimethylpiperidin-4-ylamino)-6-(6-methoxypyridin-3-yl)pyrrolo[1,2-b]pyridazine-3-carboxamide] were 9.05 and 8.36.
With `COc1ccc(-c2cc3c(N[C@@H]4CCN(C(=O)[C@@H](C)O)CC4(C)C)c(C(N)=O)cnn3c2)cn1` [Example 56], the pIC50 at GST-JAK3 enzyme is 8.48.
`C[C@@H]1[C@H]2CN(S(C)(=O)=O)C[C@H]2C[C@H]1Nc1c(C(N)=O)cnn2cc(-c3cnc(N)nc3)cc12` [Example 59, 6-(2-amino-5-pyrimidinyl)-4-(((3aS,4R,5R,6aS)-4-methyl-2-(methylsulfonyl)octahydrocyclopenta[c]pyrrol-5-yl)amino)pyrrolo[1,2-b]pyridazine-3-carboxamide]: the values for the pIC50 at GST-JAK3 enzyme and on GST-JAK1 enzyme (JAK1 kinase inhibition) were 9.22 and 9.70, respectively.
Taken in the same sequence, the figures for `CC(=O)N1CCN(c2cc3c(N[C@@H]4C[C@@H]5CN(S(C)(=O)=O)C[C@@H]5[C@H]4C)c(C(N)=O)cnn3c2)C1=O` [Example 60, 6-(3-acetyl-2-oxo-1-imidazolidinyl)-4-(((3aS,4R,5R,6aS)-4-methyl-2-(methylsulfonyl)octahydrocyclopenta[c]pyrrol-5-yl)amino)pyrrolo[1,2-b]pyridazine-3-carboxamide] were 8.74 and 9.10.
On to `C[C@@H]1[C@H]2CN(C(=O)CO)C[C@H]2C[C@H]1Nc1c(C(N)=O)cnn2cc(-c3ccc(C(N)=O)cc3)cc12` [Example 61, 6-(4-carbamoylphenyl)-4-(((3aS,4R,5R,6aS)-2-glycoloyl-4-methyloctahydrocyclopenta[c]pyrrol-5-yl)amino)pyrrolo[1,2-b]pyridazine-3-carboxamide], for which the pIC50 was 9.40 at GST-JAK3 enzyme and 9.52 on GST-JAK1 enzyme (JAK1 kinase inhibition).
Consider `C[C@@H]1[C@H]2CN(C(=O)C(C)(C)O)C[C@H]2C[C@H]1Nc1c(C(N)=O)cnn2cc(-c3cnc(N)nc3)cc12` [Example 62, 6-(2-amino-5-pyrimidinyl)-4-(((3aS,4R,5R,6aS)-2-(2-hydroxy-2-methylpropanoyl)-4-methyloctahydrocyclopenta[c]pyrrol-5-yl)amino)pyrrolo[1,2-b]pyridazine-3-carboxamide], for which the values for the pIC50 on GST-JAK3 enzyme and at GST-JAK1 enzyme (JAK1 kinase inhibition) were 9.00 and 8.44, respectively.
Taken in the same sequence, the figures for `CNC(=O)c1ccc(-c2cc3c(N[C@@H]4C[C@@H]5CN(C(=O)C(C)(C)O)C[C@@H]5[C@H]4C)c(C(N)=O)cnn3c2)cn1` [Example 63, 4-(((3aS,4R,5R,6aS)-2-(2-hydroxy-2-methylpropanoyl)-4-methyloctahydrocyclopenta[c]pyrrol-5-yl)amino)-6-(6-(methylcarbamoyl)-3-pyridinyl)pyrrolo[1,2-b]pyridazine-3-carboxamide] were 9.15 and 9.40.
Taken in the same sequence, the figures for `C[C@@H]1[C@H]2CN(S(C)(=O)=O)C[C@H]2C[C@H]1Nc1c(C(N)=O)cnn2cc(-c3nnn(C)n3)cc12` [Example 67, 4-(((3aS,4R,5R,6aS)-4-methyl-2-(methylsulfonyl)octahydrocyclopenta[c]pyrrol-5-yl)amino)-6-(2-methyl-2H-tetrazol-5-yl)pyrrolo[1,2-b]pyridazine-3-carboxamide] were 9.40 and 8.89.
In the case of `C[C@@H]1[C@H]2CN(C(=O)CF)C[C@H]2C[C@H]1Nc1c(C(N)=O)cnn2cc(-c3cnc(N)c(F)c3)cc12` [Example 69, 6-(6-amino-5-fluoropyridin-3-yl)-4-((3aS,4R,5R,6aS)-2-(2-fluoroacetyl)-4-methyloctahydrocyclopenta[c]pyrrol-5-ylamino)pyrrolo[1,2-b]pyridazine-3-carboxamide], the figures for the pIC50 on GST-JAK3 enzyme and on GST-JAK1 enzyme were 8.82 and 8.92, respectively.
Consider `C[C@@H]1[C@H]2CN(C(=O)CO)C[C@H]2C[C@H]1Nc1c(C(N)=O)cnn2cc(-c3ccc(C(=O)NC4CC4)cc3)cc12` [Example 70, 6-(4-(cyclopropylcarbamoyl)phenyl)-4-((3aS,4R,5R,6aS)-2-(2-hydroxyacetyl)-4-methyloctahydrocyclopenta[c]pyrrol-5-ylamino)pyrrolo[1,2-b]pyridazine-3-carboxamide], for which the results for the pIC50 at GST-JAK3 enzyme and on GST-JAK1 enzyme (JAK1 kinase inhibition) were 9.40 and 9.52, respectively.
Turning to `C[C@@H]1[C@H]2CN(C(=O)C(C)(C)O)C[C@H]2C[C@H]1Nc1c(C(N)=O)cnn2cc(-c3cnn(C)c3)cc12` [Example 83, 4-((3aS,4R,5R,6aS)-2-(2-hydroxy-2-methylpropanoyl)-4-methyloctahydrocyclopenta[c]pyrrol-5-ylamino)-6-(1-methyl-1H-pyrazol-4-yl)pyrrolo[1,2-b]pyridazine-3-carboxamide], the figures for the pIC50 on GST-JAK3 enzyme and at GST-JAK1 enzyme (JAK1 kinase inhibition) were 8.82 and 8.85, respectively.
For the molecule `CC(=O)N1C[C@H]2C[C@@H](Nc3c(C(N)=O)cnn4cc(-c5cnn(C)c5)cc34)[C@H](C)[C@H]2C1` [Example 93, 4-((3aS,4R,5R,6aS)-2-acetyl-4-methyloctahydrocyclopenta[c]pyrrol-5-ylamino)-6-(1-methyl-1H-pyrazol-4-yl)pyrrolo[1,2-b]pyridazine-3-carboxamide], the pIC50 at GST-JAK3 enzyme was 9.40.
